Assay results taken from ChEMBL document CHEMBL5303573, “Mapping human microbiome drug metabolism by gut bacteria and their genes” (Nature, 2019).

Experiments:
[1] = The drug is tested on Bacteroides uniformis strain: ATCC8492 for biotransformation. The drug concentrations were measured before and after a 12-h incubation by liquid-chromatography-coupled mass spectrometry (LC–MS); conditions: 2 µM
[2] = The drug is tested on Edwardsiella tarda strain: ATCC23685 for biotransformation. The drug concentrations were measured before and after a 12-h incubation by liquid-chromatography-coupled mass spectrometry (LC–MS); conditions: 2 µM
[3] = The drug is tested on Anaerococcus hydrogenalis strain: DSM7454 for biotransformation. The drug concentrations were measured before and after a 12-h incubation by liquid-chromatography-coupled mass spectrometry (LC–MS); conditions: 2 µM
[4] = The drug is tested on Eubacterium hallii strain: DSM3353 for biotransformation. The drug concentrations were measured before and after a 12-h incubation by liquid-chromatography-coupled mass spectrometry (LC–MS); conditions: anaerobutyricum hallii, 2 µM
[5] = The drug is tested on Bacteroides dorei strain: DSM17855 for biotransformation. The drug concentrations were measured before and after a 12-h incubation by liquid-chromatography-coupled mass spectrometry (LC–MS); conditions: phocaeicola dorei, 2 µM
[6] = bacteroides stercoris, 12 h, 2 µM
Description: The drug is tested on Bacteroides stercoris strain: ATCC43183 for biotransformation. The drug concentrations were measured before and after a 12-h incubation by liquid-chromatography-coupled mass spectrometry (LC–MS)

[7] = The drug is tested on Bacteroides finegoldii strain: DSM17565 for biotransformation. The drug concentrations were measured before and after a 12-h incubation by liquid-chromatography-coupled mass spectrometry (LC–MS); conditions: 2 µM
[8] = The drug is tested on Bacteroides vulgatus strain: ATCC8482 for biotransformation. The drug concentrations were measured before and after a 12-h incubation by liquid-chromatography-coupled mass spectrometry (LC–MS); conditions: phocaeicola vulgatus, 2 µM
[9] = The drug is tested on Collinsella aerofaciens strain: ATCC25986 for biotransformation. The drug concentrations were measured before and after a 12-h incubation by liquid-chromatography-coupled mass spectrometry (LC–MS); conditions: 2 µM
[10] = The drug is tested on Clostridium scindens strain: ATCC35704 for biotransformation. The drug concentrations were measured before and after a 12-h incubation by liquid-chromatography-coupled mass spectrometry (LC–MS); conditions: 2 µM
[11] = The drug is tested on Blautia hansenii strain: DSM20583 for biotransformation. The drug concentrations were measured before and after a 12-h incubation by liquid-chromatography-coupled mass spectrometry (LC–MS); conditions: 2 µM
[12] = akkermansia muciniphila, 12 h, 2 µM
Description: The drug is tested on Akkermansia muciniphila strain: ATCC BAA-835 for biotransformation. The drug concentrations were measured before and after a 12-h incubation by liquid-chromatography-coupled mass spectrometry (LC–MS)

[13] = The drug is tested on Collinsella intestinalis strain: DSM13280 for biotransformation. The drug concentrations were measured before and after a 12-h incubation by liquid-chromatography-coupled mass spectrometry (LC–MS); conditions: 2 µM
[14] = The drug is tested on Clostridium sporogenes strain: ATCC15579 for biotransformation. The drug concentrations were measured before and after a 12-h incubation by liquid-chromatography-coupled mass spectrometry (LC–MS); conditions: 2 µM
[15] = The drug is tested on Clostridium ramosum strain: DSM1402 for biotransformation. The drug concentrations were measured before and after a 12-h incubation by liquid-chromatography-coupled mass spectrometry (LC–MS); conditions: thomasclavelia ramosa, 2 µM
[16] = The drug is tested on Alistipes indistinctus strain: DSM22520 for biotransformation. The drug concentrations were measured before and after a 12-h incubation by liquid-chromatography-coupled mass spectrometry (LC–MS); conditions: 2 µM
[17] = The drug is tested on Bacteroides fragilis strain: HMW615 for biotransformation. The drug concentrations were measured before and after a 12-h incubation by liquid-chromatography-coupled mass spectrometry (LC–MS); conditions: 2 µM
[18] = The drug is tested on Escherichia coli strain: BW25113 for biotransformation. The drug concentrations were measured before and after a 12-h incubation by liquid-chromatography-coupled mass spectrometry (LC–MS); conditions: 2 µM
[19] = The drug is tested on Odoribacter splanchnicus strain: fecal isolate for biotransformation. The drug concentrations were measured before and after a 12-h incubation by liquid-chromatography-coupled mass spectrometry (LC–MS); conditions: 2 µM
[20] = bacteroides thetaiotaomicron, 12 h, 2 µM
Description: The drug is tested on Bacteroides thetaiotaomicron strain: 3731 for biotransformation. The drug concentrations were measured before and after a 12-h incubation by liquid-chromatography-coupled mass spectrometry (LC–MS)

Row | SMILES | Bacterial Biotransformation [3] | Bacterial Biotransformation [4] | Bacterial Biotransformation [5] | Bacterial Biotransformation [7] | Bacterial Biotransformation [15] | Bacterial Biotransformation [16] | Bacterial Biotransformation [17] | Bacterial Biotransformation [18] | Bacterial Biotransformation [1] | Bacterial Biotransformation [2] | Bacterial Biotransformation [6] | Bacterial Biotransformation [8] | Bacterial Biotransformation [9] | Bacterial Biotransformation [10] | Bacterial Biotransformation [11] | Bacterial Biotransformation [12] | Bacterial Biotransformation [13] | Bacterial Biotransformation [14] | Bacterial Biotransformation [19] | Bacterial Biotransformation [20]
1 | O=P(O)(O)O.c1ccc(CN(CC2=NCCN2)c2ccccc2)cc1 [ANTAZOLINE PHOSPHATE] | Compound NOT metabolized | Compound NOT metabolized | Compound NOT metabolized | Compound NOT metabolized | – | – | – | – | Compound NOT metabolized | Compound NOT metabolized | Compound NOT metabolized | Compound NOT metabolized | Compound NOT metabolized | Compound NOT metabolized | Compound NOT metabolized | Compound NOT metabolized | Compound NOT metabolized | Compound NOT metabolized | – | –
2 | O=C1N=C([O-])NC1(c1ccccc1)c1ccccc1.[Na+] [PHENYTOIN SODIUM] | Compound NOT metabolized | Compound NOT metabolized | Compound metabolized | Compound NOT metabolized | Compound NOT metabolized | Compound NOT metabolized | Compound NOT metabolized | Compound NOT metabolized | Compound metabolized | – | Compound NOT metabolized | Compound metabolized | Compound metabolized | Compound NOT metabolized | – | – | – | Compound metabolized | Compound metabolized | Compound NOT metabolized
3 | CN(CCOc1ccc(CC2SC(=O)NC2=O)cc1)c1ccccn1.O=C(O)/C=C\C(=O)O (stereo not given) [ROSIGLITAZONE MALEATE] | Compound NOT metabolized | Compound NOT metabolized | Compound NOT metabolized | Compound NOT metabolized | – | – | – | – | Compound NOT metabolized | Compound NOT metabolized | Compound NOT metabolized | Compound NOT metabolized | Compound NOT metabolized | Compound NOT metabolized | Compound NOT metabolized | Compound NOT metabolized | Compound NOT metabolized | Compound NOT metabolized | Compound NOT metabolized | Compound NOT metabolized
4 | COc1cc2nc(N3CCN(C(=O)C4CCCO4)CC3)nc(N)c2cc1OC (stereo not given) [TERAZOSIN] | Compound NOT metabolized | Compound NOT metabolized | Compound NOT metabolized | Compound NOT metabolized | – | – | Compound NOT metabolized | – | Compound NOT metabolized | Compound NOT metabolized | Compound NOT metabolized | Compound NOT metabolized | Compound NOT metabolized | – | Compound NOT metabolized | Compound NOT metabolized | Compound NOT metabolized | Compound NOT metabolized | Compound NOT metabolized | Compound NOT metabolized
5 | CC(C)(C)NC[C@H](O)COc1nsnc1N1CCOCC1.O=C(O)/C=C\C(=O)O [TIMOLOL MALEATE] | Compound NOT metabolized | Compound NOT metabolized | Compound NOT metabolized | Compound NOT metabolized | – | – | – | – | Compound NOT metabolized | Compound NOT metabolized | Compound NOT metabolized | Compound NOT metabolized | Compound NOT metabolized | Compound NOT metabolized | Compound NOT metabolized | Compound NOT metabolized | Compound NOT metabolized | Compound NOT metabolized | Compound NOT metabolized | Compound NOT metabolized
6 | COc1ccc(C(CN(C)C)C2(O)CCCCC2)cc1 (stereo not given) [VENLAFAXINE] | Compound NOT metabolized | Compound NOT metabolized | Compound NOT metabolized | Compound NOT metabolized | Compound NOT metabolized | Compound NOT metabolized | Compound NOT metabolized | Compound NOT metabolized | Compound NOT metabolized | Compound NOT metabolized | Compound NOT metabolized | Compound NOT metabolized | Compound NOT metabolized | Compound NOT metabolized | – | Compound NOT metabolized | Compound NOT metabolized | Compound NOT metabolized | Compound NOT metabolized | Compound NOT metabolized

Now from value to molecule, other results behind:

Row | Bacterial Biotransformation [3] | Bacterial Biotransformation [4] | Bacterial Biotransformation [5] | Bacterial Biotransformation [7] | Bacterial Biotransformation [15] | Bacterial Biotransformation [16] | Bacterial Biotransformation [17] | Bacterial Biotransformation [18] | SMILES | Bacterial Biotransformation [1] | Bacterial Biotransformation [2] | Bacterial Biotransformation [6] | Bacterial Biotransformation [8] | Bacterial Biotransformation [9] | Bacterial Biotransformation [10] | Bacterial Biotransformation [11] | Bacterial Biotransformation [12] | Bacterial Biotransformation [13] | Bacterial Biotransformation [14] | Bacterial Biotransformation [19] | Bacterial Biotransformation [20]
7 | Compound NOT metabolized | Compound NOT metabolized | Compound NOT metabolized | Compound NOT metabolized | Compound NOT metabolized | Compound NOT metabolized | Compound NOT metabolized | Compound NOT metabolized | c1ccc2[nH]c(-c3cscn3)nc2c1 [THIABENDAZOLE] | Compound NOT metabolized | Compound NOT metabolized | Compound NOT metabolized | – | Compound NOT metabolized | Compound NOT metabolized | – | Compound NOT metabolized | Compound NOT metabolized | Compound NOT metabolized | – | –
8 | Compound NOT metabolized | Compound NOT metabolized | Compound metabolized | Compound NOT metabolized | – | – | – | Compound NOT metabolized | OC(CCN1CCCCC1)(c1ccccc1)C1CCCCC1 (stereo not given) [TRIHEXYPHENIDYL] | Compound metabolized | Compound NOT metabolized | – | – | Compound NOT metabolized | Compound NOT metabolized | Compound metabolized | – | Compound NOT metabolized | – | – | –
9 | Compound metabolized | Compound NOT metabolized | Compound metabolized | Compound NOT metabolized | Compound NOT metabolized | Compound NOT metabolized | Compound NOT metabolized | Compound NOT metabolized | Cc1cn([C@H]2C[C@H](N=[N+]=[N-])[C@@H](CO)O2)c(=O)[nH]c1=O [ZIDOVUDINE] | – | Compound NOT metabolized | Compound metabolized | Compound metabolized | – | Compound NOT metabolized | – | Compound NOT metabolized | – | Compound metabolized | Compound NOT metabolized | Compound NOT metabolized
